# In ChEMBL document CHEMBL4196070, “Development of Piperazinediones as dual inhibitor for treatment of Alzheimer's disease” (Eur J Med Chem, 2018):
# Calls of active or inactive are those of the source. The calls are words filed in the database; no cut-off is given here.
# Assays:
# [1] = Antioxidant activity assessed as DPPH radical scavenging activity at 10 uM after 25 mins; format: functional
# [2] = Antioxidant activity assessed as DPPH radical scavenging activity at 20 uM after 25 mins; format: functional
# [3] = Selectivity index, ratio of IC50 for electric eel AChE to IC50 for equine serum BuChE
# [4] = test system: Mus musculus; assay: Reversal of scopolamine-induced memory deficit in Swiss albino mouse assessed as increase in transfer latency time of retention trial at 10 mg/kg, ip administered once daily for 7 days followed by scopolamine challenge and subsequent training session for 5 mins by passive avoidance test; format: functional, organism-based
# [5] = target: Acetylcholinesterase (Electrophorus electricus) (UniProt O42275); assay: Ratio of Vmax to Km for substrate for inhibition of electric eel AChE at 10 nM preincubated for 30 mins followed acetylthiocholine iodide substrate addition by Lineweaver-Burk plot analysis
# [6] = target: Acetylcholinesterase (Electrophorus electricus) (UniProt O42275); assay: Ratio of Vmax to Km for substrate for inhibition of electric eel AChE at 20 nM preincubated for 30 mins followed acetylthiocholine iodide substrate addition by Lineweaver-Burk plot analysis
# [7] = target: Acetylcholinesterase (Electrophorus electricus) (UniProt O42275); assay: Ratio of Vmax to Km for substrate for inhibition of electric eel AChE at 40 nM preincubated for 30 mins followed acetylthiocholine iodide substrate addition by Lineweaver-Burk plot analysis
# [8] = Metal chelating activity assessed as compound-Cu2+ complex formation at 600 uM after 8 hrs by UV spectroscopic analysis
# [9] = test system: Mus musculus; assay: Reversal of scopolamine-induced amnesic effect in Swiss albino mouse assessed as reversal of lowered spontaneous alteration at 5 mg/kg, ip administered once daily for 7 days prior to 4 hrs of training followed by scopolamine challenge and measured after 5 mins by Y-maze test; format: functional, organism-based
# [10] = test system: Mus musculus; assay: Anxiolytic activity in Swiss albino mouse assessed as increase in time spent in novel arm at 20 mg/kg, ip administered once daily for 7 days prior to 4 hrs of training followed by scopolamine challenge and measured after 5 mins by Y-maze test; format: functional, organism-based
# [11] = test system: Mus musculus; assay: Reversal of scopolamine-induced neophobia in Swiss albino mouse assessed as increase in number of novel arm entries at 5 mg/kg, ip administered once daily for 7 days prior to 4 hrs of training followed by scopolamine challenge and measured after 5 mins by Y-maze test; format: functional, organism-based
# [12] = test system: Mus musculus; assay: Reversal of scopolamine-induced anxiety in Swiss albino mouse assessed as increase in number of novel arm entries at 5 mg/kg, ip administered once daily for 7 days prior to 4 hrs of training followed by scopolamine challenge and measured after 5 mins by Y-maze test; format: functional, organism-based
# [13] = test system: Mus musculus; assay: Reversal of scopolamine-induced neophobia in Swiss albino mouse assessed as increase in number of novel arm entries at 10 mg/kg, ip administered once daily for 7 days prior to 4 hrs of training followed by scopolamine challenge and measured after 5 mins by Y-maze test; format: functional, organism-based
# [14] = test system: Mus musculus; assay: Reversal of scopolamine-induced anxiety in Swiss albino mouse assessed as increase in number of novel arm entries at 10 mg/kg, ip administered once daily for 7 days prior to 4 hrs of training followed by scopolamine challenge and measured after 5 mins by Y-maze test; format: functional, organism-based
# [15] = test system: Mus musculus; assay: Reversal of scopolamine-induced memory deficit in ip dosed Swiss albino mouse assessed as increase in transfer latency time of retention trial administered once daily for 7 days followed by scopolamine challenge and subsequent training session for 5 mins by passive avoidance test; format: functional, organism-based
# [16] = test system: Mus musculus; assay: Restoration of brain mitochondrial membrane potential in scopolamine-induced Swiss albino mouse amnesia model at 5 mg/kg, ip administered once daily for 7 days followed by scopolamine challenge by tetramethylrhodamine dye-based fluorescence assay; format: functional, organism-based
# [17] = test system: Mus musculus; assay: Antialzheimer activity in Swiss albino mouse assessed as reversal of scopolamine-induced AChE level in brain at 5 mg/kg, ip administered once daily for 7 days followed by scopalamine challenge using acetylthiocholine iodide as substrate by Ellman's method; format: functional, organism-based
# [18] = test system: Mus musculus; assay: Neuroprotective activity in scopolamine-induced amnesia Swiss albino mouse model assessed as decrease in neurodegenerative lesions in brain at 10 mg/kg, ip administered once daily for 7 days followed by scopolamine challenge by histopathological method; format: functional, organism-based
# [19] = test system: Mus musculus; assay: Reversal of scopolamine-induced amnesic effect in Swiss albino mouse assessed as reversal of lowered spontaneous alteration at 10 mg/kg, ip administered once daily for 7 days prior to 4 hrs of training followed by scopolamine challenge and measured after 5 mins by Y-maze test; format: functional, organism-based
# [20] = test system: Mus musculus; assay: Reversal of scopolamine-induced neophobia in Swiss albino mouse assessed as increase in number of novel arm entries at 5 to 10 mg/kg, ip administered once daily for 7 days prior to 4 hrs of training followed by scopolamine challenge and measured after 5 mins by Y-maze test; format: functional, organism-based
# [21] = test system: Mus musculus; assay: Reversal of scopolamine-induced anxiety in Swiss albino mouse assessed as increase in number of novel arm entries at 5 to 10 mg/kg, ip administered once daily for 7 days prior to 4 hrs of training followed by scopolamine challenge and measured after 5 mins by Y-maze test; format: functional, organism-based
# [22] = test system: Mus musculus; assay: Antialzheimer activity in Swiss albino mouse assessed as reversal of scopolamine-induced AChE level in brain at 10 mg/kg, ip administered once daily for 7 days followed by scopalamine challenge using acetylthiocholine iodide as substrate by Ellman's method; format: functional, organism-based
# [23] = test system: Mus musculus; assay: Restoration of brain catalase level in scopolamine-induced Swiss albino mouse amnesia model at 10 mg/kg, ip administered once daily for 7 days followed by scopolamine challenge by spectrophotometric analysis; format: functional, organism-based
# Acetylcholinesterase (Electrophorus electricus), sequence (O42275 24-633 limits assumed): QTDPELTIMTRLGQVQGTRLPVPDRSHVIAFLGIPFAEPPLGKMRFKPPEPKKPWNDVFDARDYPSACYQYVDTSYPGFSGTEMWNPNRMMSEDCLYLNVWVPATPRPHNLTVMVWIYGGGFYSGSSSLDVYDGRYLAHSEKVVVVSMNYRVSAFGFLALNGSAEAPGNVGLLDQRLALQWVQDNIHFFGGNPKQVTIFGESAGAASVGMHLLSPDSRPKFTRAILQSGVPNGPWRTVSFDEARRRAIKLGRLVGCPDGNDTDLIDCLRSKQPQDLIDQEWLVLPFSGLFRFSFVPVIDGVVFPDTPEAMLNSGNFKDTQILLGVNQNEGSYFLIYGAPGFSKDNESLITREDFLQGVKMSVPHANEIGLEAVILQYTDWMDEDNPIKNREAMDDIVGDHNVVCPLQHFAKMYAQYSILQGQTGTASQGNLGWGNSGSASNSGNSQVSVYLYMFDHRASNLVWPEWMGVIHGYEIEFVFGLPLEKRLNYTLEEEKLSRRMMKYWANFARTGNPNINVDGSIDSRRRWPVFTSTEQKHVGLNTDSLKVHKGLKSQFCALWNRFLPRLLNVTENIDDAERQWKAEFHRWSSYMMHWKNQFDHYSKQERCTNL
smiles,measurement,setting,value
CCCCS(=O)(=O)N1CC(=O)N(S(=O)(=O)CCCC)CC1=O,Activity,[1],65.7%
same,Activity,[2],56.7%
O=C1CN(S(=O)(=O)c2cccc(Cl)c2)C(=O)CN1S(=O)(=O)c1cccc(Cl)c1,Ratio IC50,[3],0.3
same,Activity,[1],35.7%
same,Activity,[2],55.2%
Cc1cccc(S(=O)(=O)N2C(=O)C(c3ccccc3)N(S(=O)(=O)c3cccc(C)c3)C(=O)C2c2ccccc2)c1 (stereo unspecified),Ratio IC50,[3],< 0.4
same,Activity,[1],38.6%
same,Activity,[2],55.2%
COc1cc2c(cc1OC)C(=O)C(CC1CCN(Cc3ccccc3)CC1)C2 (stereo unspecified),Activity,[1],60.1%
same,Activity,[2],74.6%
same,Activity,[4],Active
O=C1CN(S(=O)(=O)c2ccc(Cl)cc2)C(=O)CN1S(=O)(=O)c1ccc(Cl)cc1,Ratio IC50,[3],0.3
same,Activity,[1],36.2%
same,Activity,[2],55.2%
COc1ccc(S(=O)(=O)N2CC(=O)N(S(=O)(=O)c3ccc(OC)cc3)CC2=O)cc1,Ratio IC50,[3],< 0.5
same,Activity,[1],48.6%
same,Activity,[2],57.6%
Nc1ccc(S(=O)(=O)N2CC(=O)N(S(=O)(=O)c3ccc(N)cc3)CC2=O)cc1,Ratio IC50,[3],< 0.4
same,Activity,[1],55.7%
same,Activity,[2],62.9%
O=C1C(c2ccccc2)N(S(=O)(=O)c2ccc(Cl)cc2)C(=O)C(c2ccccc2)N1S(=O)(=O)c1ccc(Cl)cc1 (stereo unspecified),Ratio IC50,[3],0.2
same,Vmax/Km,[5],0.104 U/min/nM
same,Vmax/Km,[6],0.0696 U/min/nM
same,Vmax/Km,[7],0.00052 U/min/nM
same,Activity,[1],52.9%
same,Activity,[2],60.3%
same,Activity,[8],Active
same,Activity,[9],Active
same,Activity,[10],Active
same,Activity,[11],Active
same,Activity,[12],Active
same,Activity,[13],inactive
same,Activity,[14],inactive
same,Activity,[15],Dose-dependent effect
same,Activity,[16],Active
same,Activity,[17],Active
same,Activity,[18],Active
O=C1C(Cc2ccccc2)N(S(=O)(=O)c2ccc(O)cc2)C(=O)C(Cc2ccccc2)N1S(=O)(=O)c1ccc(O)cc1 (stereo unspecified),Ratio IC50,[3],0.3
same,Activity,[1],58.1%
same,Activity,[2],68.6%
Cc1ccc(S(=O)(=O)N2C(=O)C(c3ccccc3)N(S(=O)(=O)c3ccc(C)cc3)C(=O)C2c2ccccc2)cc1 (stereo unspecified),Ratio IC50,[3],< 0.4
same,Activity,[1],38.1%
same,Activity,[2],56.2%
O=C1C(Cc2ccccc2)N(S(=O)(=O)c2ccc(Br)cc2)C(=O)C(Cc2ccccc2)N1S(=O)(=O)c1ccc(Br)cc1 (stereo unspecified),Ratio IC50,[3],0.3
same,Activity,[1],47.6%
same,Activity,[2],64.8%
O=C1CN(S(=O)(=O)c2ccc(F)cc2)C(=O)CN1S(=O)(=O)c1ccc(F)cc1,Ratio IC50,[3],0.4
same,Activity,[1],37.1%
same,Activity,[2],50.5%
O=C1C(c2ccccc2)N(S(=O)(=O)c2ccc(Br)cc2)C(=O)C(c2ccccc2)N1S(=O)(=O)c1ccc(Br)cc1 (stereo unspecified),Ratio IC50,[3],0.2
same,Activity,[1],45.7%
same,Activity,[2],63.8%
O=C1C(Cc2ccccc2)N(S(=O)(=O)c2ccc([N+](=O)[O-])cc2)C(=O)C(Cc2ccccc2)N1S(=O)(=O)c1ccc([N+](=O)[O-])cc1 (stereo unspecified),Ratio IC50,[3],0.4
same,Activity,[1],42.9%
same,Activity,[2],54.8%
O=C1C(c2ccccc2)N(S(=O)(=O)c2ccc(O)cc2)C(=O)C(c2ccccc2)N1S(=O)(=O)c1ccc(O)cc1 (stereo unspecified),Ratio IC50,[3],< 0.4
same,Activity,[1],52.9%
same,Activity,[2],65.2%
O=C1CN(S(=O)(=O)c2ccc(Br)cc2)C(=O)CN1S(=O)(=O)c1ccc(Br)cc1,Ratio IC50,[3],0.4
same,Activity,[1],47.1%
same,Activity,[2],60.4%
O=C1C(c2ccccc2)N(S(=O)(=O)c2cccc(Br)c2)C(=O)C(c2ccccc2)N1S(=O)(=O)c1cccc(Br)c1 (stereo unspecified),Ratio IC50,[3],0.4
same,Activity,[1],46.2%
same,Activity,[2],63.3%
O=C1CN(S(=O)(=O)c2ccccc2)C(=O)CN1S(=O)(=O)c1ccccc1,Activity,[1],39.5%
same,Activity,[2],52.4%
Nc1ccc(S(=O)(=O)N2C(=O)C(c3ccccc3)N(S(=O)(=O)c3ccc(N)cc3)C(=O)C2c2ccccc2)cc1 (stereo unspecified),Ratio IC50,[3],< 0.5
same,Activity,[1],56.2%
same,Activity,[2],66.7%
O=C1C(c2ccccc2)N(S(=O)(=O)c2ccc([N+](=O)[O-])cc2)C(=O)C(c2ccccc2)N1S(=O)(=O)c1ccc([N+](=O)[O-])cc1 (stereo unspecified),Ratio IC50,[3],0.3
same,Activity,[1],42.4%
same,Activity,[2],54.3%
O=C1O[C@H]([C@@H](O)CO)C(O)=C1O,Activity,[1],37.1%
same,Activity,[2],48.8%
CCCS(=O)(=O)N1CC(=O)N(S(=O)(=O)CCC)CC1=O,Activity,[1],31.4%
same,Activity,[2],59.2%
O=C1C(Cc2ccccc2)N(S(=O)(=O)c2ccc(Cl)cc2)C(=O)C(Cc2ccccc2)N1S(=O)(=O)c1ccc(Cl)cc1 (stereo unspecified),Ratio IC50,[3],0.2
same,Activity,[1],48.1%
same,Activity,[2],60%
same,Activity,[19],Active
same,Activity,[20],Active
same,Activity,[10],Active
same,Activity,[21],Active
same,Activity,[16],Active
same,Activity,[22],Active
same,Activity,[23],Active
same,Activity,[18],Active
Cc1ccc(S(=O)(=O)N2CC(=O)N(S(=O)(=O)c3ccc(C)cc3)CC2=O)cc1,Ratio IC50,[3],< 0.6
same,Activity,[1],34.8%
same,Activity,[2],46.7%
O=C1C(Cc2ccccc2)N(S(=O)(=O)c2cccc(O)c2)C(=O)C(Cc2ccccc2)N1S(=O)(=O)c1cccc(O)c1 (stereo unspecified),Ratio IC50,[3],0.3
same,Activity,[1],57.1%
same,Activity,[2],66.2%
O=C1C(Cc2ccccc2)N(S(=O)(=O)c2cccc(Br)c2)C(=O)C(Cc2ccccc2)N1S(=O)(=O)c1cccc(Br)c1 (stereo unspecified),Ratio IC50,[3],0.4
same,Activity,[1],46.7%
same,Activity,[2],64.3%
